# From patent publication EP4778929A1, “NOVEL TYPE I TOPOISOMERASE INHIBITOR, AND PREPARATION METHOD THEREFOR AND USE THEREOF” (priority 2023, dated 2025)
# “And” between values parts separate entries of the source, which are not always exact repeats. Identical values can stand only once. Like-named read-outs stand apart in the source and are kept apart here.
# Key:
# topoisomerase I (Topo I) = target: T1, topoisomerase I (Topo I) (Homo sapiens, UniProt P11387); test: Topo I enzyme-inhibitory activity by agarose-gel electrophoresis (plasmid relaxation); assay type: biochemical
# T1 sequence (P11387 1-765): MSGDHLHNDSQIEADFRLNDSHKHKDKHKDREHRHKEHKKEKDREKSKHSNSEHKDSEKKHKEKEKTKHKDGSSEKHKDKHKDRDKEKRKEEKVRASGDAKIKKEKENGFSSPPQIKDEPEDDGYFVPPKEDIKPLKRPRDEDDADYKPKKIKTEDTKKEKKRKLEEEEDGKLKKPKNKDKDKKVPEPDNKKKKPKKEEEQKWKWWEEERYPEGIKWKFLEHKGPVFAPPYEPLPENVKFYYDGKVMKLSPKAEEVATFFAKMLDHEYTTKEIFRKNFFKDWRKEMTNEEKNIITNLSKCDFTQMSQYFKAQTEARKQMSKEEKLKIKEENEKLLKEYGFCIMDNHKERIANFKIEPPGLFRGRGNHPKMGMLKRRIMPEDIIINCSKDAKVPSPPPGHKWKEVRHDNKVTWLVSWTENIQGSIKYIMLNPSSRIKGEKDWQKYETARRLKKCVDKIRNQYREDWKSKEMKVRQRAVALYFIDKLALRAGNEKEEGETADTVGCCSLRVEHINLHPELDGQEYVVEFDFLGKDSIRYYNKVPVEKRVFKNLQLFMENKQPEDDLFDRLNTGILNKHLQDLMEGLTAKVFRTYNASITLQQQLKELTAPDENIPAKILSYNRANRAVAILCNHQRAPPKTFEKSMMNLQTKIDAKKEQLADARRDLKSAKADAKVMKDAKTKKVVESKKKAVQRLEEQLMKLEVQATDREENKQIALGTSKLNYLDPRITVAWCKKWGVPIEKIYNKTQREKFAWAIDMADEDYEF
# From the text: Test Example 1. Determination of Topo I Enzyme-Inhibitory Activity by Agarose-Gel Electrophoresis
# Principle: Type-I topoisomerase (Topo I) relaxes positive and negative supercoils by introducing transient single-strand breaks and forming reversible cleavage complexes (Topo I-DNA covalent complexes). Gel electrophoresis can resolve DNA species of identical molecular weight but different topology: supercoiled plasmid migrates fastest, whereas the nicked, relaxed form moves more slowly. Quantifying the decrease in supercoiled DNA therefore provides a direct measure of Topo I activity.
# Experimental Procedure: A 1× reaction buffer was prepared (20 mM Tris-HCl pH 7.5, 200 mM NaCl, 0.25 mM EDTA, 5 % (v/v) glycerol, 0.5 µg pNO1 plasmid substrate). Test compounds (5 % DMSO final) were added to the buffer, followed by Topo I enzyme (0.75 U per reaction). After gentle mixing, reactions were incubated at 37 °C for 30 min. Positive (enzyme + vehicle) and negative (no enzyme) controls were included in parallel. Reactions were terminated by adding STEB buffer and chloroform/iso-amyl alcohol (24:1, v/v), vortexed and centrifuged for 2 min. The aqueous (upper) phase was loaded onto a 1 % (w/v) agarose gel, electrophoresed for 1-2 h, stained with GelRed, and imaged under UV trans-illumination.
# Data Analysis: Band intensities of supercoiled DNA were quantified with image-analysis software. Relaxation activity (%) was calculated as (Max-Sample)/ (Max-Min)*100%, where Max = intensity of the no-enzyme negative control, Min = intensity of the vehicle-only positive control, and Sample = intensity of the compound-treated lane. Dose-response data (compound concentration, X; relaxation activity %, Y) were fitted in Excel or GraphPad Prism 5.0 using the four-parameter logistic equation: Y=Bottom + (Top-Bottom)/(1+(IC50/X)[…]) to derive the IC50 value for each compound.
# Table 1. Compound-mediated inhibition of topoisomerase I (Topo I) enzymatic activity
# HCT116 cells = test: Inhibition of cell proliferation by CTG (CellTiter-Glo) luminescence assay; assay type: cell-based; conditions: Homo sapiens, read-out: HCT116, IC50
# In short: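 Nine-point 1:3 dilutions applied to HCT116 cells (2 000/well, McCoy's 5a + 10 % FBS) for 72 h at 37 °C, final DMSO 0.25 %. Viability read by CellTiter-Glo luminescence; % inhibition versus DMSO controls fitted to four-parameter logistic for IC50.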
# [1] = read-out: inhibition of topoisomerase I (Topo I) enzymatic activity, IC50; 0.75 U Topo I, pNO1 plasmid, 37 °C, 30 min; compounds listed by group (Group A / Group B)
# [2] = 0.75 U Topo I, pNO1 plasmid, 37 °C, 30 min; compounds listed by group (Group A / Group B); read-out: inhibition of topoisomerase I (Topo I) enzymatic activity, IC50
# [3] = HCT-116, 72 h incubation, CellTiter-Glo
SMILES,IC50 (topoisomerase I (Topo I); [1]),"IC50 (HCT116 cells; HCT-116, 72 h) [µM]",IC50 (topoisomerase I (Topo I); [2]) [µM],IC50 (HCT116 cells; [3]) [µM]
"CC[C@@]1(O)C(=O)OCc2c1cc1n(c2=O)Cc2c-1c(=O)c1cc3c(cc1n2-c1ccc(N)cc1)OCO3 [Example 67, (S)-5-(4-aminophenyl)-12-ethyl-12-hydroxy-9,12-dihydro-8H-[1,3]dioxolo[4,5-g]pyrano[3,4:6,7]indolizino[2,1-b]quinoline-8,11,14 (SH,6H)-trione]",0.2 to 0.5 µM,< 0.02,–,–
"CC[C@@]1(O)C(=O)OCc2c1cc1n(c2=O)Cc2c-1c(=O)c1cc(F)c(C)cc1n2-c1ccc(N)cc1 [Example 68, (S)-11-(4-aminophenyl)-4-ethyl-8-fluoro-4-hydroxy-9-methyl-1,12-dihydro-14H-pyrano[3,4:6,7]indolizino[2,1-b]quinoline-3,6,14 (4H,11H)-trione]",0.2 to 0.5 µM,< 0.02,–,–
"CC[C@@]1(O)C(=O)OCc2c1cc1n(c2=O)Cc2c-1c(=O)c1cc(F)c(N)cc1n2C1CCCC1 [Example 69, (S)-9-amino-4-ethyl-8-fluoro-4-hydroxy-11-cyclopentyl-1,12-dihydro-14H-pyrano[3,4:6,7]indolizino[2,1-b]quinoline-3,6,14(4H,11H)-trione]",–,–,< 0.2,< 0.02
"CC[C@@]1(O)C(=O)OCc2c1cc1n(c2=O)Cc2c-1c(=O)c1cc(F)c(N)cc1n2C1CCC(C)(C)CC1 [Example 70, (S)-9-amino-4-ethyl-8-fluoro-4-hydroxy-11-(4,4-dimethylcyclohexyl)-1,12-dihydro-14H-pyrano[3,4:6,7]indolizino[2,1-b] quinoline-3,6,14(4H,11H)-trione]",0.2 to 0.5 µM,< 0.02,–,–
"CC[C@@]1(O)C(=O)OCc2c1cc1n(c2=O)Cc2c-1c(=O)c1cc(F)ccc1n2-c1cccc(N)c1 [Example 71, (S)-11-(3-aminophenyl)-4-ethyl-8-fluoro-4-hydroxy-1H-pyrano[3,4:6,7]indolizino[2,1-b]quinoline-3,6,14(4H,11H,12H)-trione]",0.2 to 0.5 µM,< 0.02,–,–
"CC[C@@]1(O)C(=O)OCc2c1cc1n(c2=O)Cc2c-1c(=O)c1cc(F)ccc1n2-c1ccc(N)cc1 [Example 72, (S)-11-(4-aminophenyl)-4-ethyl-8-fluoro-4-hydroxy-1H-pyrano[3,4:6,7]indolizino[2,1-b]quinoline-3,6,14(4H,11H,12H)-trione]",0.2 to 0.5 µM,< 0.02,–,–
"CC[C@@]1(O)C(=O)OCc2c1cc1n(c2=O)Cc2c-1c(=O)c1cc(F)ccc1n2-c1cccc(OC)c1 [Example 73, (S)-4-ethyl-8-fluoro-4-hydroxy-11-(3-methoxyphenyl)-1,12-dihydro-14H-pyrano[3,4:6,7]indolizino[2,1-b]quinoline-3,6,14(4H,11H)-trione]",0.2 to 0.5 µM,< 0.02,–,–
"CC[C@@]1(O)C(=O)OCc2c1cc1n(c2=O)Cc2c-1c(=O)c1cc(F)cc(CNC3CC3)c1n2C [Example 88, (S)-10-((cyclopropylamino)methyl)-4-ethyl-8-fluoro-4-hydroxy-11-methyl-1,12-dihydro-14H-pyrano[3,4:6,7]indolizino[2,1-b] quinoline-3,6,14(4H,11H)-trione]",0.2 to 0.5 µM,< 0.02,–,–
"CC[C@@]1(O)C(=O)OCc2c1cc1n(c2=O)Cc2c-1c(=O)c1cc(F)cc(CN(C)C3CC3)c1n2C [Example 89, (S)-10-((cyclopropyl(methyl)amino)methyl)-4-ethyl-8-fluoro-4-hydroxy-11-methyl-1,12-dihydro-14H-pyrano[3,4:6,7]indolizino[2,1-b]quinoline-3,6,14(4H,11H)-trione]",0.2 to 0.5 µM,< 0.02,–,–
"CC[C@@]1(O)C(=O)OCc2c1cc1n(c2=O)Cc2c-1c(=O)c1cc(F)ccc1n2CCN(C1CC1)C1CC(F)(F)C1 [Example 101, (S)-11-(2-(cyclopropyl(3,3-difluorocyclobutyl)amino)ethyl)-4-ethyl-8-fluoro-4-hydroxy-1,12-dihydro-14H-pyrano[3,4:6,7] indolizino[2,1-b]quinoline-3,6,14(4H,11H)-trione]",0.2 to 0.5 µM and < 0.2 µM,< 0.02,–,–
CC[C@@]1(O)C(=O)OCc2c1cc1n(c2=O)Cc2c-1c(=O)c1cc(F)ccc1n2CCNC1CCC1 [Example 106],0.2 to 0.5 µM,< 0.02,–,–
CC[C@@]1(O)C(=O)OCc2c1cc1n(c2=O)Cc2c-1c(=O)c1cc(F)ccc1n2CCN(C1CCC1)C1CCC1 [Example 119],0.2 to 0.5 µM,< 0.02,–,–
CC[C@@]1(O)C(=O)OCc2c1cc1n(c2=O)Cc2c-1c(=O)c1cc(F)ccc1n2CCN(C1CCCC1)C1CC1 [Example 137],0.2 to 0.5 µM,< 0.02,–,–
CC[C@@]1(O)C(=O)OCc2c1cc1n(c2=O)Cc2c-1c(=O)c1cc(F)ccc1n2CCNC1CCCC1(C)C (some centres unmarked) [Example 138],0.2 to 0.5 µM,< 0.02,–,–
CC[C@@]1(O)C(=O)OCc2c1cc1n(c2=O)Cc2c-1c(=O)c1cc(F)ccc1n2CCN(C)C1CCCC1(C)C (some centres unmarked) [Example 139],0.2 to 0.5 µM,< 0.02,–,–
CC[C@@]1(O)C(=O)OCc2c1cc1n(c2=O)Cc2c-1c(=O)c1cc(F)ccc1n2CCN(C1CC1)C1CC1 [Example 140],< 0.2 µM,< 0.02,–,–
CC[C@@]1(O)C(=O)OCc2c1cc1n(c2=O)Cc2c-1c(=O)c1cc(F)ccc1n2CCN(C1CCC1)C1CC1 [Example 141],0.2 to 0.5 µM,< 0.02,–,–
CC[C@@]1(O)C(=O)OCc2c1cc1n(c2=O)Cc2c-1c(=O)c1cc(F)c(C)cc1n2CCNC1CCC1 [Example 159],0.2 to 0.5 µM,< 0.02,–,–
CC[C@@]1(O)C(=O)OCc2c1cc1n(c2=O)Cc2c-1c(=O)c1cc(F)c(C)cc1n2CCNC1CC(F)(F)C1 [Example 160],–,–,0.2 to 0.5,< 0.02
CC[C@@]1(O)C(=O)OCc2c1cc1n(c2=O)Cc2c-1c(=O)c1cc(F)c(C)cc1n2CCNC1CC1 [Example 161],0.2 to 0.5 µM,< 0.02,–,–
CC[C@@]1(O)C(=O)OCc2c1cc1n(c2=O)Cc2c-1c(=O)c1cc(F)c(C)cc1n2CCNC1CCCC1 [Example 163],0.2 to 0.5 µM,< 0.02,–,–
CC[C@@]1(O)C(=O)OCc2c1cc1n(c2=O)Cc2c-1c(=O)c1cc(F)c(C)cc1n2CCN(C)C1CC1 [Example 164],0.2 to 0.5 µM,< 0.02,–,–
CC[C@@]1(O)C(=O)OCc2c1cc1n(c2=O)Cc2c-1c(=O)c1cc(F)c(C)cc1n2CCN(C1CC1)C1CC(F)(F)C1 [Example 165],0.2 to 0.5 µM,< 0.02,–,–
CC[C@@]1(O)C(=O)OCc2c1cc1n(c2=O)Cc2c-1c(=O)c1cc(F)c(C)cc1n2CCN(C)C1CCCC1 [Example 166],0.2 to 0.5 µM,< 0.02,–,–
CC[C@@]1(O)C(=O)OCc2c1cc1n(c2=O)Cc2c-1c(=O)c1cc(F)c(C)cc1n2CCN(C1CCCC1)C1CC1 [Example 167],0.2 to 0.5 µM,< 0.02,–,–
